Reference: ChEMBL document CHEMBL5579892, “Rational Design, Synthesis, and Structure-Activity Relationship of a Novel Isoquinolinone-Based Series of HBV Capsid Assembly Modulators Leading to the Identification of Clinical Candidate AB-836” (J Med Chem, 2024)
Values after ≈ are worked out from the molar mass of the structure shown. One block for each compound: values may come before it. Active and inactive are the calls of the source. The calls are words filed in the database; no cut-off is given here.

Experiments:
Hepatitis B virus [1] = assay: Antiviral activity against HBV infected in HepDE19 cells; type: functional, organism-based
[2] = Cytotoxicity against human HepDE19 cells by CellTiter-Glo analysis; type: toxicity, cell-based
[3] = Microsomal stability in mouse liver microsomes assessed as intrinsic clearance; type: ADME, Microsome; details: read-out: CLH
[4] = Microsomal stability in human liver microsomes assessed as intrinsic clearance; type: ADME, Microsome; details: read-out: CLH
Cytochrome P450 1A2 = target: T1, Cytochrome P450 1A2 (Homo sapiens, UniProt P05177); assay: Inhibition of CYP1A2 (unknown origin); type: ADME
T1 sequence (P05177 whole entry): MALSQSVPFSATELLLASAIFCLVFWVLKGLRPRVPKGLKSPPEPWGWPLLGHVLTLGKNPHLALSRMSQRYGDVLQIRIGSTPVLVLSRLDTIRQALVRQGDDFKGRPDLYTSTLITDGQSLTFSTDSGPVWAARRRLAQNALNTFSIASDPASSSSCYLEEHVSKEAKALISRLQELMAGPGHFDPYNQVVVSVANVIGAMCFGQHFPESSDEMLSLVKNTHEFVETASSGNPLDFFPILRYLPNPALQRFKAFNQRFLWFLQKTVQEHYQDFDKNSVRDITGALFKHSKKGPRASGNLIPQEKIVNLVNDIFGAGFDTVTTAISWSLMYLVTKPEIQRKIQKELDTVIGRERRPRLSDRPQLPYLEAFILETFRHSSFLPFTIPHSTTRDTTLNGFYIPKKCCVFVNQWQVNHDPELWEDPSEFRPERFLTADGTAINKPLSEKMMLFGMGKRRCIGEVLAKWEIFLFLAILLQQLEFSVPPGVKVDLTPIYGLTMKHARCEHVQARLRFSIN

Cytochrome P450 2B6 = target: T2, Cytochrome P450 2B6 (Homo sapiens, UniProt P20813); assay: Inhibition of CYP2B6 (unknown origin); type: ADME
T2 sequence (P20813 whole entry): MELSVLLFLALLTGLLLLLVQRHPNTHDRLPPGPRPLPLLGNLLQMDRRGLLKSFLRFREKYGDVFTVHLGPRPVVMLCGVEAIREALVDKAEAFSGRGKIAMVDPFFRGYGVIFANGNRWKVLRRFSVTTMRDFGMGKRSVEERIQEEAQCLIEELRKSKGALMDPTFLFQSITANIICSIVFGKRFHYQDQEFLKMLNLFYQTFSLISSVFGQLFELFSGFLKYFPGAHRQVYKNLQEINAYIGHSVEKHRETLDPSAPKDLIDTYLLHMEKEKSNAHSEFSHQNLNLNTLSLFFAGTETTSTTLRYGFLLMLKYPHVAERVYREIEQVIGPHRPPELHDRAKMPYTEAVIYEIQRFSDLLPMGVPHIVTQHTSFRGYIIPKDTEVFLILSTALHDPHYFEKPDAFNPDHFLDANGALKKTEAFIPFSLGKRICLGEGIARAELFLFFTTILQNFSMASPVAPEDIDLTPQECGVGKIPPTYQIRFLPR

Cytochrome P450 2C9 = Cytochrome P450 2C9 (Homo sapiens, UniProt P11712); assay: Inhibition of CYP2C9 (unknown origin); type: ADME
Cytochrome P450 2C19 = Cytochrome P450 2C19 (Homo sapiens, UniProt P33261); assay: Inhibition of CYP2C19 (unknown origin); type: ADME
Cytochrome P450 2D6 = Cytochrome P450 2D6 (Homo sapiens, UniProt P10635); assay: Inhibition of CYP2D6 (unknown origin); type: ADME
Cytochrome P450 3A4 = Cytochrome P450 3A4 (Homo sapiens, UniProt P08684); assay: Inhibition of CYP3A4 (unknown origin); type: ADME
[5] = Kinetic solubility in PBS at pH 7.4; type: physicochemical; details: read-out: Kinetic_solubility
[6] = Half-life in CD-1 mouse at 10 mg/kg, po; type: ADME, organism-based; details: in vivo
[7] = Half-life in CD-1 mouse at 2 mg/kg, iv; type: ADME, organism-based; details: in vivo
[8] = AUC (0 to infinity) in CD-1 mouse at 10 mg/kg, po; type: ADME, organism-based; details: in vivo
[9] = AUC (0 to infinity) in CD-1 mouse at 2 mg/kg, iv; type: ADME, organism-based; details: in vivo
[10] = Oral bioavailability in CD-1 mouse at 10 mg/kg; type: ADME, organism-based; details: in vivo
Hepatitis B virus [11] = assay: Antiviral activity against HBV infected in po dosed NOD.CB17-Prkdcscid/J mouse assessed as reduction in viral DNA administered once daily or twice daily for 7 days by qPCR analysis; type: functional, organism-based; details: dose 3-30 mg/kg, time 7.0 day
Hepatitis B virus [12] = assay: Antiviral activity against HBV infected in NOD.CB17-Prkdcscid/J mouse assessed as log10 reduction in viral DNA at 30 mg/kg, po administered twice daily for 7 days by qPCR analysis; type: functional; details: time 7 day
Hepatitis B virus [13] = assay: Antiviral activity against HBV infected in NOD.CB17-Prkdcscid/J mouse assessed as log10 reduction in viral DNA at 10 mg/kg, po administered twice daily for 7 days by qPCR analysis; type: functional; details: time 7 day
Hepatitis B virus [14] = assay: Antiviral activity against HBV infected in NOD.CB17-Prkdcscid/J mouse assessed as log10 reduction in viral DNA at 30 mg/kg, po administered once daily for 7 days by qPCR analysis; type: functional; details: time 7 day
[15] = Microsomal stability in rat liver microsomes assessed as intrinsic clearance; type: ADME, Microsome; details: read-out: CLH
[16] = Microsomal stability in monkey liver microsomes assessed as intrinsic clearance; type: ADME, Macaca mulatta, Microsome; details: rhesus monkey, read-out: CLH
[17] = Clearance in CD-1 mouse at 2 mg/kg, iv; type: ADME, organism-based; details: in vivo
[18] = Drug concentration in CD-1 mouse liver at 10 mg/kg, po measured after 24 hrs; type: ADME, organism-based; details: read-out: Ct
[19] = Drug concentration in CD-1 mouse liver assessed as fold increase in EC90 concentration required for antiviral activity against HBV infected in HepDE19 cells at 10 mg/kg, po measured after 24 hrs; type: ADME, organism-based; details: in vivo
[20] = AUC (0 to infinity) in rat at 10 mg/kg, po; type: ADME, organism-based; details: in vivo
[21] = AUC (0 to infinity) in monkey at 10 mg/kg, po; type: ADME, organism-based, Macaca mulatta; details: rhesus monkey, in vivo
[22] = Clearance in rat at 2 mg/kg, iv; type: ADME, organism-based; details: in vivo
[23] = Clearance in monkey at 2 mg/kg, iv; type: ADME, organism-based, Macaca mulatta; details: rhesus monkey, in vivo
[24] = Half-life in rat at 10 mg/kg, po; type: ADME, organism-based; details: in vivo
[25] = Half-life in monkey at 10 mg/kg, po; type: ADME, organism-based, Macaca mulatta; details: rhesus monkey, in vivo
[26] = Drug concentration in rat liver at 10 mg/kg, po measured after 24 hrs; type: ADME, organism-based; details: read-out: Ct
[27] = Drug concentration in rat liver assessed as fold increase in EC90 concentration required for antiviral activity against HBV infected in HepDE19 cells at 10 mg/kg, po measured after 24 hrs; type: ADME, organism-based; details: in vivo
Hepatitis B virus [28] = assay: Antiviral activity against HBV infected in NOD.CB17-Prkdcscid/J mouse assessed as log10 reduction in viral DNA at 3 mg/kg, po administered once daily for 7 days by qPCR analysis; type: functional; details: time 7 day
Hepatitis B virus [29] = assay: Antiviral activity against HBV infected in NOD.CB17-Prkdcscid/J mouse assessed as log10 reduction in viral DNA at 10 mg/kg, po administered once daily for 7 days by qPCR analysis; type: functional; details: time 7 day
Hepatitis B virus [30] = assay: Antiviral activity against HBV infected in HepDE19 cells assessed as effect on pgRNA core protein at 1 uM; type: functional, organism-based
Hepatitis B virus [31] = assay: Antiviral activity against HBV infected in HepDE19 cells assessed as effect on capsid particle formation at 1 uM; type: functional, organism-based
Hepatitis B virus [32] = assay: Antiviral activity against HBV infected in HepG2-hNTCP-C4 cells assessed as inhibition of HBsAg formation preincubated with compound followed by viral infection; type: functional, organism-based
Hepatitis B virus [33] = assay: Antiviral activity against HBV infected in HepG2-hNTCP-C4 cells assessed as inhibition of cccDNA formation preincubated with compound followed by viral infection; type: functional, organism-based
Hepatitis B virus [34] = assay: Antiviral activity against HBV infected in HepG2-hNTCP-C4 cells assessed as inhibition of HBsAg formation preincubated with virus followed by compound addition; type: functional, organism-based
Hepatitis B virus [35] = assay: Antiviral activity against HBV infected in HepG2-hNTCP-C4 cells assessed as inhibition of cccDNA formation preincubated with virus followed by compound addition; type: functional, organism-based

Cytochrome P450 2C19, sequence (P33261 whole entry): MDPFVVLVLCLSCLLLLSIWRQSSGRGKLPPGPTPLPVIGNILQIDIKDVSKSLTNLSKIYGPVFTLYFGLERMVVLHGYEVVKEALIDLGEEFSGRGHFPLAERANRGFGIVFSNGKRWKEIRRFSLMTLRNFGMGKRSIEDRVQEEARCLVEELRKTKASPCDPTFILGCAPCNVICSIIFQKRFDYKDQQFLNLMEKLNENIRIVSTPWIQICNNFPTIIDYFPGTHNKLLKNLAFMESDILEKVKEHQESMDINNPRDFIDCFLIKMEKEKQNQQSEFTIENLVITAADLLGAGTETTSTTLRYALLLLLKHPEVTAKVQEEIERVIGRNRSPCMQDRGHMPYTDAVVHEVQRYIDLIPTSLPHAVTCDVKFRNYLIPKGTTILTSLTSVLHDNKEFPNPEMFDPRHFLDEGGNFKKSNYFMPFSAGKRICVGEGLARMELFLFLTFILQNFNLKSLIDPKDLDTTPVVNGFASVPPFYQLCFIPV
Cytochrome P450 3A4, sequence (P08684 whole entry): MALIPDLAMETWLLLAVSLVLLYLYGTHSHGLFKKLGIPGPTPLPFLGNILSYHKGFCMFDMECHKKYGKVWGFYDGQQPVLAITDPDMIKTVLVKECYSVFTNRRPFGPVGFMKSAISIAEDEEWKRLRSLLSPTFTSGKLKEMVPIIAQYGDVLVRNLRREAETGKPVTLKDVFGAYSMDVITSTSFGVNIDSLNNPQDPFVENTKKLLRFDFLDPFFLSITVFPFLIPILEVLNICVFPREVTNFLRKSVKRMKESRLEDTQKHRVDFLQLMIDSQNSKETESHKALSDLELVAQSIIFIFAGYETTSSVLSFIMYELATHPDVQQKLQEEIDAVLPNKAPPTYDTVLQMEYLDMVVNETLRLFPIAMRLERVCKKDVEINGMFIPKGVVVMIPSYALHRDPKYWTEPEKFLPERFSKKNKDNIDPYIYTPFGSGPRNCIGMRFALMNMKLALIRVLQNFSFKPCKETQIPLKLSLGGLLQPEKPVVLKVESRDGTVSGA
Cytochrome P450 2C9, sequence (P11712 whole entry): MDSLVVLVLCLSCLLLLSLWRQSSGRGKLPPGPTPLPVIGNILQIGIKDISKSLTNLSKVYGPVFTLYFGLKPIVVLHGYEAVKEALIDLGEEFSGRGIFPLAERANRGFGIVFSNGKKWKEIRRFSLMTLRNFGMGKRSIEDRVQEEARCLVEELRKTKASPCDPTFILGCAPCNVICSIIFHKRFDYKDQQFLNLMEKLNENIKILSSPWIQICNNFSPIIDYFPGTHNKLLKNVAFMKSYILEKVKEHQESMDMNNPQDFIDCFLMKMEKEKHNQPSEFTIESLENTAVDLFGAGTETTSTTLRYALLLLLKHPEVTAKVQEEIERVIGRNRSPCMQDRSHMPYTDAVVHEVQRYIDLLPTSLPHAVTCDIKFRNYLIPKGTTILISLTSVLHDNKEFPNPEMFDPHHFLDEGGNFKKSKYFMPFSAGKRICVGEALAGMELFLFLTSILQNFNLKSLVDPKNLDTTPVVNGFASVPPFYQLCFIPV
Cytochrome P450 2D6, sequence (P10635 whole entry): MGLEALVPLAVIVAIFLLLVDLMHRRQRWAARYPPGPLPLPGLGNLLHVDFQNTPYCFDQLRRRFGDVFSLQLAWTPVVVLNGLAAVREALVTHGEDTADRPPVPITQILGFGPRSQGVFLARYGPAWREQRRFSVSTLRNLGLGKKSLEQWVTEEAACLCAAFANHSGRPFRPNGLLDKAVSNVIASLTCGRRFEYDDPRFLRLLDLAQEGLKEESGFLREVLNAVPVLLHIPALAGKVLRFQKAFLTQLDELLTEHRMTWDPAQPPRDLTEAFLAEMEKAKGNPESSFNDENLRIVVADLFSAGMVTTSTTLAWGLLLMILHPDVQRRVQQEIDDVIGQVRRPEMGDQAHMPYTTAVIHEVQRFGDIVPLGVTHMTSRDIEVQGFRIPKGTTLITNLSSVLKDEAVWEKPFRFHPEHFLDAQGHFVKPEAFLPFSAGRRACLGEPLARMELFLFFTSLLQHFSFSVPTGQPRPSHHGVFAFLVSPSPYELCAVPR

EC50 (Hepatitis B virus [1]): 45 nM | microsomal CLint [3]: 29 µL/min/mg | microsomal CLint [4]: 44 µL/min/mg | IC50 (Cytochrome P450 1A2): > 20000 nM | IC50 (Cytochrome P450 2B6): > 20000 nM | IC50 (Cytochrome P450 2C9): > 20000 nM | IC50 (Cytochrome P450 2C19): > 20000 nM | IC50 (Cytochrome P450 2D6): > 20000 nM | IC50 (Cytochrome P450 3A4): > 20000 nM | solubility kinetic [5]: 135 µM (≈ 50.5 µg/mL) | half-life [6]: 2.2 h | half-life [7]: 2.4 h | AUC(0-inf) [8]: 13800 ng·h/mL | AUC(0-inf) [9]: 3520 ng·h/mL | bioavailability [10]: 80%
SMILES: CC(c1c[nH]c(=O)c2ccccc12)N(C)C(=O)Nc1ccc(F)c(Cl)c1 (stereo not drawn)
CC50 [2]: > 25000 nM | Activity (Hepatitis B virus [11]): Dose-Dependent Effect | log(activity) (Hepatitis B virus [12]): 1.4 | log(activity) (Hepatitis B virus [13]): 0.6 | log(activity) (Hepatitis B virus [14]): 0.3

SMILES: C[C@H](c1c[nH]c(=O)c2cc(F)c(F)cc12)N(C)C(=O)Nc1ccc(F)c(C#N)c1
EC50 (Hepatitis B virus [1]): 10 nM | CC50 [2]: > 25000 nM | microsomal CLint [3]: 10 µL/min/mg | microsomal CLint [4]: 31 µL/min/mg | solubility kinetic [5]: 120 µM (≈ 48 µg/mL) | half-life [6]: 3.1 h | AUC(0-inf) [8]: 13000 ng·h/mL | microsomal CLint [15]: 46 µL/min/mg | microsomal CLint [16]: 34 µL/min/mg | clearance [17]: 13 mL/min/kg | concentration at 24 h [18]: 395 ng/mL | fold change (FC) [19]: 25 | AUC(0-inf) [20]: 5740 ng·h/mL | AUC(0-inf) [21]: 9270 ng·h/mL | clearance [22]: 11 mL/min/kg | clearance [23]: 9 mL/min/kg | half-life [24]: 4.4 h | half-life [25]: 14 h | concentration at 24 h [26]: 334 ng/mL | fold change (FC) [27]: 20 | log(activity) (Hepatitis B virus [28]): 1.4 | log(activity) (Hepatitis B virus [29]): 2.5 | Activity (Hepatitis B virus [30]): inactive | Activity (Hepatitis B virus [31]): inactive | EC50 (Hepatitis B virus [32]): 197 nM | EC50 (Hepatitis B virus [33]): 175 nM | Activity (Hepatitis B virus [34]): inactive | Activity (Hepatitis B virus [35]): inactive

EC50 (Hepatitis B virus [1]): 24 nM | microsomal CLint [3]: 35 µL/min/mg | microsomal CLint [4]: 17 µL/min/mg | solubility kinetic [5]: 190 µM (≈ 71.3 µg/mL)
SMILES: C[C@H](c1c[nH]c(=O)c2cc(F)c(F)cc12)N(C)C(=O)Nc1ccc(F)cc1
CC50 [2]: > 25000 nM
